What all share (experiment): MIC by E-strips on Mueller-Hinton agar with or without NAB7061 (4 µg/ml)
Assay [1] has as its system Ac. baumannii F263. The format is cell-based, Acinetobacter baumannii. Particulars: A. baumannii F263; NAB 7061 4 µg/ml. As to the method: (§1) MICs were determined by using E-strips (Biodisk Ltd., Solna, Sweden) according to the manufacturer's instructions.
(§2) The strains originated from ATCC (11 strains), CCUG (11 strains), and NCTC (The National Collection of Type Cultures, Colindale, U.K.; 2 strains). Eight strains (the F-strains) were purchased from Mobidiag Ltd., Helsinki, Finland.

Assay [2] has as its system Ac. baumannii F264. The format is cell-based, Acinetobacter baumannii. Particulars: A. baumannii F264; NAB 7061 4 µg/ml. As to the method: as §1, §2
Assay [3] concerns E. coli ATCC25922. The format is cell-based, Escherichia coli. The conditions noted are these: ratio of the MIC of the antibiotic in the absence of NAB 7061 to that in the presence of 4 µg/ml of NAB 7061; E. coli ATCC 25922. As to the method:
as §1, §2

Bounds are passed on as bounds.

In the case of `C[C@@H](O)[C@H]1C(=O)N2C(C(=O)O)=C(SCCN=CN)C[C@H]12` [imipenem], the “MIC (µg/ml) at the indicated concn (µg/ml) of NAB 7061: 4” value turned out to be 8 µg/mL in assay [1] and 6 µg/mL in assay [2].

With `C[C@@H](O)[C@H]1C(=O)N2C(C(=O)O)=C(S[C@@H]3CN[C@H](C(=O)N(C)C)C3)[C@H](C)[C@H]12` [meropenem], in assay [3], the Sensitization factor is recorded as less than 2. Besides, the entries for the “MIC (µg/ml) at the indicated concn (µg/ml) of NAB 7061: 4” value in assay [1] and in assay [2] were 6 µg/mL and 4 µg/mL, respectively.
